Assay results taken from patent US20070111251A1, “Chemical address tags” (priority 2003, published 2007).

System: HeLa cells
Assay: Kinetic imaging of NBD-triazine probe uptake and sequestration, fitted to nested two-compartment transport model
Format: cell-based
Details: median over optimal solutions within 5% of the best fit
Procedure: In living cells, image data was simultaneously acquired with an automated, high-content, kinetic screening instrument equipped with an environmental chamber (see, e.g., V. C. Abraham, D. L. Taylor and J. R. Haskins, Trends in Biotechnology 22, 15 (2004); herein incorporated by reference in its entirety), as cells were incubated with the fluorescent molecules and after removal of extracellular probe. Data was analyzed off line, using an image analysis algorithm to measure the statistical pixel intensity distribution associated with fluorescence probe sequestration in the perinuclear region (see, e.g., FIG. 21; see also, e.g., G. J. Ding et al., Journal of Biological Chemistry 273, 28897 (1998); herein incorporated by reference in its entirety). Data was parametrized with a nested, two-compartment, transport model (see, e.g., W. E. Evans, J. J. Schentag and W. J. Jusko., Applied Pharmacokinetics: Principles of Therapeutic Drug Monitoring (Lippincott Williams & Wilkins, Vancouver, W.A., 1992); herein incorporated by reference in its entirety), using a statistical link function to relate the kinetic coefficient of variation (CV) of pixel intensities in the images with the concentration of probe in vesicles and cytoplasm. Optimal kinetic parameters fitting the experimental data for each probe to the system described by the two-compartment model and statistical link function were determined using the simulated annealing technique (see, e.g., M. Pincus., Oper. Res. 18, 1225 (1979); herein incorporated by reference in its entirety). The present invention is not limited to a particular mechanism. Indeed, an understanding of the mechanism is not necessary to practice the present invention.
To assess how well the model accounts for all the different kinetic traces acquired, a “PVE” (proportion of variance explained) by the model was calculated. The PVE is one minus the ratio of the sum of squared differences between observed and fitted values to the sum of squared differences between observed values and their mean. PVE values close to one indicate good fit to the nested two-compartment model. The average PVE across the probes was 0.92, with >50% of the probes yielded PVE values […]. The present invention is not limited to a particular mechanism. Indeed, an understanding of the mechanism is not necessary to practice the present invention.
Cell culture. HeLa cells were grown in RPMI+10% FCS in a 5% CO2 atmosphere at 37° C. and plated in 96-well plates at a density of 3000 cells/well 24 hours prior to the start of the experiment.
Kinetic Imaging. For influx experiments, cells on 96-well plates were switched to imaging media consisting of RPMI containing 1.0 mM Bromophenol Blue—a soluble, cell-impermeant chromophore used to suppress excitation and emission of extracellular (background) dye fluorescence-, 10 μM probe and 0.1 μM Hoescht 33258 to label the cell nuclei. Plates were then transferred to a KineticScan instrument (Cellomics, Inc., Pittsburgh, Pa.), which contains an environmentally controlled CO2/temperature/humidity chamber, and data was acquired with a 20× objective lens. Images acquisition began approximately 10 min after dye addition, using the Hoescht channel to acquire nuclear images and FITC channel to acquire the NBD image. Plate-scanning mode was used for scanning, in which the instrument builds time-stacks of images by scanning the plate multiple times, returning to the same site of the plate at every scan. For efflux experiments, dye-containing media was removed from the wells of the plate. The wells were washed twice with fresh RPMI medium, imaging media was added, and image acquisition restarted 7 min after the dye-containing media was removed. The last time points of the influx experiment served as the first time point of the efflux experiment. Plates were scanned for approximately two hours in the influx experiment and six hours for the efflux experiment, with each well imaged on average every 7 minutes. […]

CCCCCCCCNc1nc(NCCCCCCNc2ccc([N+](=O)[O-])c3nonc23)nc(NCc2ccc(OC)cc2)n1 [Compound C3]
median Pap(cyto) (apparent partition coefficient between extracellular medium and cytosol): 5.74 | median Pap(ves) (apparent partition coefficient between cytosol and intracellular vesicles, k(ves)in/k(ves)out): 26.52

COc1ccc(CNc2nc(NCCCCCCNc3ccc([N+](=O)[O-])c4nonc34)nc(NCCc3ccccn3)n2)cc1 [Compound C9]
median Pap(cyto) (apparent partition coefficient between extracellular medium and cytosol): 12.33 | median Pap(ves) (apparent partition coefficient between cytosol and intracellular vesicles, k(ves)in/k(ves)out): 16.46

CCCCCCCCNc1nc(NCCCCCCNc2ccc([N+](=O)[O-])c3nonc23)nc(NCCc2ccc(OC)cc2)n1 [Compound D3]
median Pap(cyto) (apparent partition coefficient between extracellular medium and cytosol): 2.75 | median Pap(ves) (apparent partition coefficient between cytosol and intracellular vesicles, k(ves)in/k(ves)out): 101.21

CC1CCC(Nc2nc(NCCCCCCNc3ccc([N+](=O)[O-])c4nonc34)nc(NCc3cccc(F)c3)n2)CC1 (centres unmarked) [Compound E4]
median Pap(cyto) (apparent partition coefficient between extracellular medium and cytosol): 11.91 | median Pap(ves) (apparent partition coefficient between cytosol and intracellular vesicles, k(ves)in/k(ves)out): 16.46

COc1cccc(CNc2nc(NCCCCCCNc3ccc([N+](=O)[O-])c4nonc34)nc(NCCC(C)C)n2)c1 [Compound B8]
median Pap(cyto) (apparent partition coefficient between extracellular medium and cytosol): 9.79 | median Pap(ves) (apparent partition coefficient between cytosol and intracellular vesicles, k(ves)in/k(ves)out): 23.66

CCCCCCCCNc1nc(NCCCCCCNc2ccc([N+](=O)[O-])c3nonc23)nc(NCc2cccc(F)c2)n1 [Compound E3]
median Pap(cyto) (apparent partition coefficient between extracellular medium and cytosol): 4.14 | median Pap(ves) (apparent partition coefficient between cytosol and intracellular vesicles, k(ves)in/k(ves)out): 19.86

O=[N+]([O-])c1ccc(NCCCCCCNc2nc(NCc3ccccc3)nc(NCC3CCCCC3)n2)c2nonc12 [Compound A6]
median Pap(cyto) (apparent partition coefficient between extracellular medium and cytosol): 151.26 | median Pap(ves) (apparent partition coefficient between cytosol and intracellular vesicles, k(ves)in/k(ves)out): 0.30

CCCCNc1nc(NCCCCCCNc2ccc([N+](=O)[O-])c3nonc23)nc(NCc2ccc(C)cc2)n1 [Compound G1]
median Pap(cyto) (apparent partition coefficient between extracellular medium and cytosol): 12.30 | median Pap(ves) (apparent partition coefficient between cytosol and intracellular vesicles, k(ves)in/k(ves)out): 12.14

Cc1ccc(CNc2nc(NCCCCCCNc3ccc([N+](=O)[O-])c4nonc34)nc(NCC3CCCCC3)n2)cc1 [Compound G6]
median Pap(cyto) (apparent partition coefficient between extracellular medium and cytosol): 35.66 | median Pap(ves) (apparent partition coefficient between cytosol and intracellular vesicles, k(ves)in/k(ves)out): 10.12

CCCCCCCCNc1nc(NCCCCCCNc2ccc([N+](=O)[O-])c3nonc23)nc(NCc2ccccc2)n1 [Compound A3]
median Pap(cyto) (apparent partition coefficient between extracellular medium and cytosol): 12.96 | median Pap(ves) (apparent partition coefficient between cytosol and intracellular vesicles, k(ves)in/k(ves)out): 6.45

COc1cccc(CNc2nc(NCCCCCCNc3ccc([N+](=O)[O-])c4nonc34)nc(NC(C)C)n2)c1OC [Compound H2]
median Pap(cyto) (apparent partition coefficient between extracellular medium and cytosol): 10.30 | median Pap(ves) (apparent partition coefficient between cytosol and intracellular vesicles, k(ves)in/k(ves)out): 9.91

O=[N+]([O-])c1ccc(NCCCCCCNc2nc(NCCc3ccccn3)nc(NCc3ccccc3)n2)c2nonc12 [Compound A9]
median Pap(cyto) (apparent partition coefficient between extracellular medium and cytosol): 11.54 | median Pap(ves) (apparent partition coefficient between cytosol and intracellular vesicles, k(ves)in/k(ves)out): 19.12

CCCCNc1nc(NCCCCCCNc2ccc([N+](=O)[O-])c3nonc23)nc(NCCc2ccc(OC)cc2)n1 [Compound D1]
median Pap(cyto) (apparent partition coefficient between extracellular medium and cytosol): 12.15 | median Pap(ves) (apparent partition coefficient between cytosol and intracellular vesicles, k(ves)in/k(ves)out): 15.51

O=[N+]([O-])c1ccc(NCCCCCCNc2nc(NCc3cccc(F)c3)nc(NCC3CCCCC3)n2)c2nonc12 [Compound E6]
median Pap(cyto) (apparent partition coefficient between extracellular medium and cytosol): 10.29 | median Pap(ves) (apparent partition coefficient between cytosol and intracellular vesicles, k(ves)in/k(ves)out): 20.28

O=[N+]([O-])c1ccc(NCCCCCCNc2nc(NCCc3ccccn3)nc(NCc3cccc(F)c3)n2)c2nonc12 [Compound E9]
median Pap(cyto) (apparent partition coefficient between extracellular medium and cytosol): 225.98 | median Pap(ves) (apparent partition coefficient between cytosol and intracellular vesicles, k(ves)in/k(ves)out): 0.37

COc1ccc(CNc2nc(NCCCCCCNc3ccc([N+](=O)[O-])c4nonc34)nc(NC3CCC(C)CC3)n2)cc1 (centres unmarked) [Compound C4]
median Pap(cyto) (apparent partition coefficient between extracellular medium and cytosol): 22.58 | median Pap(ves) (apparent partition coefficient between cytosol and intracellular vesicles, k(ves)in/k(ves)out): 9.87

CC(C)CCNc1nc(NCCCCCCNc2ccc([N+](=O)[O-])c3nonc23)nc(NCc2ccccc2)n1 [Compound A8]
median Pap(cyto) (apparent partition coefficient between extracellular medium and cytosol): 3.75 | median Pap(ves) (apparent partition coefficient between cytosol and intracellular vesicles, k(ves)in/k(ves)out): 63.22

CC(C)Nc1nc(NCCCCCCNc2ccc([N+](=O)[O-])c3nonc23)nc(NCc2ccccc2)n1 [Compound A2]
median Pap(cyto) (apparent partition coefficient between extracellular medium and cytosol): 13.18 | median Pap(ves) (apparent partition coefficient between cytosol and intracellular vesicles, k(ves)in/k(ves)out): 13.98

COc1ccc(CNc2nc(NCCCCCCNc3ccc([N+](=O)[O-])c4nonc34)nc(NCC3CCCCC3)n2)cc1 [Compound C6]
median Pap(cyto) (apparent partition coefficient between extracellular medium and cytosol): 19.15 | median Pap(ves) (apparent partition coefficient between cytosol and intracellular vesicles, k(ves)in/k(ves)out): 11.94

O=[N+]([O-])c1ccc(NCCCCCCNc2nc(NCCc3ccccc3)nc(NCc3cccc(F)c3)n2)c2nonc12 [Compound E10]
median Pap(cyto) (apparent partition coefficient between extracellular medium and cytosol): 5.10 | median Pap(ves) (apparent partition coefficient between cytosol and intracellular vesicles, k(ves)in/k(ves)out): 14.90

CCCCCCCCNc1nc(NCCCCCCNc2ccc([N+](=O)[O-])c3nonc23)nc(NCc2ccc(C)cc2)n1 [Compound G3]
median Pap(cyto) (apparent partition coefficient between extracellular medium and cytosol): 0.95 | median Pap(ves) (apparent partition coefficient between cytosol and intracellular vesicles, k(ves)in/k(ves)out): 43.97

O=[N+]([O-])c1ccc(NCCCCCCNc2nc(NCCC(c3ccccc3)c3ccccc3)nc(NC3CCCCC3)n2)c2nonc12 [Compound F7]
median Pap(cyto) (apparent partition coefficient between extracellular medium and cytosol): 3.33 | median Pap(ves) (apparent partition coefficient between cytosol and intracellular vesicles, k(ves)in/k(ves)out): 8.01

CC(C)CCNc1nc(NCCCCCCNc2ccc([N+](=O)[O-])c3nonc23)nc(NCCC(c2ccccc2)c2ccccc2)n1 [Compound F8]
median Pap(cyto) (apparent partition coefficient between extracellular medium and cytosol): 65.86 | median Pap(ves) (apparent partition coefficient between cytosol and intracellular vesicles, k(ves)in/k(ves)out): 10.07

CC(C)CCNc1nc(NCCCCCCNc2ccc([N+](=O)[O-])c3nonc23)nc(NCc2cccc(F)c2)n1 [Compound E8]
median Pap(cyto) (apparent partition coefficient between extracellular medium and cytosol): 12.09 | median Pap(ves) (apparent partition coefficient between cytosol and intracellular vesicles, k(ves)in/k(ves)out): 11.21

COc1cccc(CNc2nc(NCCCCCCNc3ccc([N+](=O)[O-])c4nonc34)nc(NCC3CCCCC3)n2)c1 [Compound B6]
median Pap(cyto) (apparent partition coefficient between extracellular medium and cytosol): 242.54 | median Pap(ves) (apparent partition coefficient between cytosol and intracellular vesicles, k(ves)in/k(ves)out): 0.36

COc1cccc(CNc2nc(NCCCCCCNc3ccc([N+](=O)[O-])c4nonc34)nc(NC(C)C)n2)c1 [Compound B2]
median Pap(cyto) (apparent partition coefficient between extracellular medium and cytosol): 11.59 | median Pap(ves) (apparent partition coefficient between cytosol and intracellular vesicles, k(ves)in/k(ves)out): 10.82

Cc1ccc(CNc2nc(NCCCCCCNc3ccc([N+](=O)[O-])c4nonc34)nc(NCCC(C)C)n2)cc1 [Compound G8]
median Pap(cyto) (apparent partition coefficient between extracellular medium and cytosol): 8.29 | median Pap(ves) (apparent partition coefficient between cytosol and intracellular vesicles, k(ves)in/k(ves)out): 24.73

COc1ccc(CNc2nc(NCCCCCCNc3ccc([N+](=O)[O-])c4nonc34)nc(NC(C)C)n2)cc1 [Compound C2]
median Pap(cyto) (apparent partition coefficient between extracellular medium and cytosol): 239.41 | median Pap(ves) (apparent partition coefficient between cytosol and intracellular vesicles, k(ves)in/k(ves)out): 1.03
